Measurements from patent US8354545B2, “3,4-substituted pyrrolidine beta-secretase inhibitors for the treatment of alzheimer's disease” (Merck, Sharp & Dohme, Corp., priority 2007, dated 2013).

molecular target: T1, BACE 1 (Homo sapiens, UniProt P56817); test: ECL Assay: homogeneous end point electrochemiluminescence assay with biotinylated BACE substrate; format: biochemical; details: soluble human enzyme, pH 6.5
T1 construct: soluble (transmembrane domain and cytoplasmic extension excluded) human protein; made in house; host or cells: baculovirus expression system (insect cells implied)
T1 sequence (P56817 46-457 limits assumed): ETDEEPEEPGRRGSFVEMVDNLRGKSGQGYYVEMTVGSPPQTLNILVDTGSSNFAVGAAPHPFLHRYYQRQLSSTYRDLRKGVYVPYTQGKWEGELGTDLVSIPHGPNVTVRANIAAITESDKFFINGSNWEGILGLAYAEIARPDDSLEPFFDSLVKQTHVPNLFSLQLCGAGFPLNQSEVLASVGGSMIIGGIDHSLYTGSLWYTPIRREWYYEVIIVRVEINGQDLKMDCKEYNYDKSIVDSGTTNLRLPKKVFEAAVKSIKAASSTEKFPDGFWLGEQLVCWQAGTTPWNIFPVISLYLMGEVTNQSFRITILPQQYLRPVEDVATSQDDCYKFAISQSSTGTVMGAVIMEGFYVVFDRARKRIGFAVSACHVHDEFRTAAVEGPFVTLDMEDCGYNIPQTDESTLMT
Protocol: Enzyme inhibition is determined as follows.
ECL Assay: A homogeneous end point electrochemiluminescence (ECL) assay is performed using a biotinylated BACE substrate. […] A typical reaction contains approximately 0.6 nM enzyme, 0.25 μM of the substrate, and buffer (50 mM Pipes, pH 6.5, 0.1 mg/ml BSA, 0.2% CHAPS, 15 mM EDTA and 1 mM deferoxamine) in a total reaction volume of 100 μl. […] To measure the inhibitory potency for compounds, 10 concentrations of inhibitors are prepared starting from 200 μM with three fold series dilution. Solutions of the inhibitor in DMSO are included in the reaction mixture (final DMSO concentration is 10%). All experiments are conducted at […] using the standard reaction conditions described above. To determine the IC50 of the compound, a four parameter equation is used for curve fitting.

| Compound | IC50 |
| --- | --- |
| O=C([C@@H]1CNC[C@H]1c1ccccc1Br)N1CCCC1Cc1ccccc1 (stereo partly drawn) [Example 8, 2-benzyl-1-{[(3S,4R)-4-(2-bromophenyl)pyrrolidin-3-yl]carbonyl}pyrrolidine] | 67 µM |
| CCOc1ccc(-c2ccccc2[C@@H]2CNC[C@H]2C(=O)N2CCOC[C@@H]2c2ccccc2)cc1 [Example 12] | 18 µM |
| O=C([C@@H]1CNC[C@H]1c1ccccc1Br)N1CCC2(C=Cc3ccccc32)CC1 [Example 38, 1-{[(3S,4R)-4-(2-bromophenyl)pyrrolidin-3-yl]carbonyl}spiro[indene-1,4′-piperidine]] | 19 µM |
| CS(=O)(=O)c1ccc(-c2ccccc2[C@@H]2CNC[C@H]2C(=O)N2CCC3(C=Cc4ccccc43)CC2)cc1 [Example 64] | 3 µM |
| CS(=O)(=O)c1ccc(-c2ccccc2[C@@H]2CNC[C@H]2C(=O)N2CCC(c3ccccc3)CC2c2ccccc2)cc1 (stereo partly drawn) [Example 76, 1-({(3S,4R)-4-[4′-(methylsulfonyl)biphenyl-2-yl]pyrrolidin-3-yl}carbonyl)-2,4-diphenylpiperidine] | 3.5 µM |
| O=C([C@@H]1CNC[C@H]1c1ccccc1Br)N1CCC2(C=Cc3ccccc32)CC1c1ccccc1 (stereo partly drawn) [Example 79, 1′-{[(3S,4R)-4-(2-bromophenyl)pyrrolidin-3-yl]carbonyl}-2′-phenylspiro[indene-1,4′-piperidine]] | 1.8 µM |
| CS(=O)(=O)c1ccc(-c2ccccc2[C@@H]2CNC[C@H]2C(=O)N2CCC3(C=Cc4ccccc43)CC2c2ccccc2)cc1 (stereo partly drawn) [Example 83, 1′-({(3S,4R)-4-(4′-(methylsulfonyl)biphenyl-2-yl]pyrrolidin-3-yl}carbonyl)-2′-phenylspiro-[indene-1,4′-piperidine]] | 0.38 µM |
